Experimental data from patent publication US20100087523A1, “Rupestonic acid derivatives and use thereof” (priority 2008, published 2010).

System: B-type flu virus (jifang/97-13)
Experiment: organism not typed
Conditions: MDCK, 36 h, read-out: Activity for inhibiting B-type flu viruses IC50

With `NC(=O)c1ncn([C@@H]2O[C@H](CO)[C@@H](O)[C@H]2O)n1` [Ribavirin] the IC50 was 11.9 µM.

System: B-type flu virus (jifang/97-13)
Experiment: not given
Conditions: read-out: Activity for inhibiting B-type flu viruses IC50

Point of comparison: `C=C(C(=O)OCc1ccc([N+](=O)[O-])cc1)C1CCC(C)C2CC(=O)C(C)=C2C1` (centres unmarked) [B-15, Rupestonic (p-nitryl-benzyl)-ester], IC50 5.5 µM. Against it:
- C=C(C(=O)OCC)C1CCC(C)C2CC(=O)C(C)=C2C1 (centres unmarked) [B-1, Ethyl Rupestonic ester] — 9.3-fold higher, 50.9 µM
- C=C(C(=O)OCc1ccccc1Br)C1CCC(C)C2CC(=O)C(C)=C2C1 (centres unmarked) [B-17, Rupestonic (o-bromobenzyl)-ester] — 4.7-fold higher, 25.7 µM
- C=C(C(=O)OCc1ccc(Cl)cc1)C1CCC(C)C2CC(=O)C(C)=C2C1 (centres unmarked) [B-14, Rupestonic (p-chlorobenzyl)-ester] — 3.5-fold higher, 19.1 µM
- C=C(C(=O)O)[C@H]1CC[C@H](C)[C@@H]2CC(=O)C(C)=C2C1 [Compound 1, rupestonic acid] — 21-fold higher, 116 µM
- C=C(C(=O)Nc1ccc(Cl)cc1)C1CCC(C)C2CC(=O)C(C)=C2C1 (centres unmarked) [A-2, N(4-chloro-phenyl)-Rupestonic amide] — 5.4-fold higher, 29.9 µM

System: MDCK (Madin-darby canine kidney) cells
Experiment: not given
Conditions: read-out: TC50 (toxic concentration 50%); host cells of the anti-flu virus test

Point of comparison: `C=C(C(=O)Nc1ccc(Cl)cc1)C1CCC(C)C2CC(=O)C(C)=C2C1` (centres unmarked) [A-2, N(4-chloro-phenyl)-Rupestonic amide], CC50 121 µM. Against it:
- C=C(C(=O)Nc1ccccc1Br)C1CCC(C)C2CC(=O)C(C)=C2C1 (centres unmarked) [A-5, N(2-bromo-phenyl)-Rupestonic amide] — within 1.5-fold, 160 µM
- C=C(C(=O)OCC)C1CCC(C)C2CC(=O)C(C)=C2C1 (centres unmarked) [B-1, Ethyl Rupestonic ester] — 1.6-fold higher, 194 µM
- C=C(C(=O)OCc1ccccc1Br)C1CCC(C)C2CC(=O)C(C)=C2C1 (centres unmarked) [B-17, Rupestonic (o-bromobenzyl)-ester] — 2.1-fold lower, 57.3 µM
- C=C(C(=O)OCc1ccc(Cl)cc1)C1CCC(C)C2CC(=O)C(C)=C2C1 (centres unmarked) [B-14, Rupestonic (p-chlorobenzyl)-ester] — 2.5-fold lower, 47.7 µM
- C=C(C(=O)Oc1ccc(C)cc1)C1CCC(C)C2CC(=O)C(C)=C2C1 (centres unmarked) [B-9, Rupestonic (p-methylphenyl)-ester] — 1.6-fold higher, 191 µM
- C=C(C(=O)Oc1ccc(Cl)cc1)C1CCC(C)C2CC(=O)C(C)=C2C1 (centres unmarked) [B-2, Rupestonic (p-chlorophenyl)-ester] — 2-fold higher, 240 µM
- C=C(C(=O)O)[C@H]1CC[C@H](C)[C@@H]2CC(=O)C(C)=C2C1 [Compound 1, rupestonic acid] — 8.6-fold higher, 1040 µM
- C=C(C(=O)OCc1ccc([N+](=O)[O-])cc1)C1CCC(C)C2CC(=O)C(C)=C2C1 (centres unmarked) [B-15, Rupestonic (p-nitryl-benzyl)-ester] — 4.8-fold lower, 25 µM
- C=C(C(=O)Oc1ccccc1Cl)C1CCC(C)C2CC(=O)C(C)=C2C1 (centres unmarked) [B-3, Rupestonic (o-chlorophenyl)-ester] — 2.4-fold lower, 49.7 µM
- C=C(C(=O)Oc1ccc(Br)cc1)C1CCC(C)C2CC(=O)C(C)=C2C1 (centres unmarked) [B-4, Rupestonic (p-bromophenyl)-ester] — 2.7-fold lower, 44.2 µM

System: not listed separately
Experiment: in vitro
Conditions: dog

Point of comparison: `NC(=O)c1ncn([C@@H]2O[C@H](CO)[C@@H](O)[C@H]2O)n1` [Ribavirin], CC50 1570 µM. Against it:
- CCOC(=O)C1=C[C@@H](OC(CC)CC)[C@H](NC(C)=O)[C@@H](N)C1 [Oseltamivir] — not separable, > 1220 µM

System: A-type flu virus (jifang/90-15)
Experiment: not given
Conditions: read-out: Activity for inhibiting A-type flu viruses IC50

Point of comparison: `C=C(C(=O)OCc1ccc(Cl)cc1)C1CCC(C)C2CC(=O)C(C)=C2C1` (centres unmarked) [B-14, Rupestonic (p-chlorobenzyl)-ester], IC50 12.5 µM. Against it:
- C=C(C(=O)Nc1ccccc1Br)C1CCC(C)C2CC(=O)C(C)=C2C1 (centres unmarked) [A-5, N(2-bromo-phenyl)-Rupestonic amide] — 3.9-fold higher, 49 µM
- C=C(C(=O)OCC)C1CCC(C)C2CC(=O)C(C)=C2C1 (centres unmarked) [B-1, Ethyl Rupestonic ester] — 3.1-fold higher, 39.1 µM
- C=C(C(=O)OCc1ccccc1Br)C1CCC(C)C2CC(=O)C(C)=C2C1 (centres unmarked) [B-17, Rupestonic (o-bromobenzyl)-ester] — within 1.5-fold, 15.2 µM
- C=C(C(=O)Nc1ccc(Cl)cc1)C1CCC(C)C2CC(=O)C(C)=C2C1 (centres unmarked) [A-2, N(4-chloro-phenyl)-Rupestonic amide] — 1.5-fold higher, 19.2 µM
- C=C(C(=O)OCc1ccc([N+](=O)[O-])cc1)C1CCC(C)C2CC(=O)C(C)=C2C1 (centres unmarked) [B-15, Rupestonic (p-nitryl-benzyl)-ester] — 2.3-fold lower, 5.5 µM
- C=C(C(=O)Oc1ccccc1Cl)C1CCC(C)C2CC(=O)C(C)=C2C1 (centres unmarked) [B-3, Rupestonic (o-chlorophenyl)-ester] — within 1.5-fold, 11.5 µM
- C=C(C(=O)Oc1ccc(Br)cc1)C1CCC(C)C2CC(=O)C(C)=C2C1 (centres unmarked) [B-4, Rupestonic (p-bromophenyl)-ester] — within 1.5-fold, 10.2 µM

Same assay, conditions: read-out: IC50, inhibit A-type flu virus

Point of comparison: `C=C(C(=O)Oc1ccc(C)cc1)C1CCC(C)C2CC(=O)C(C)=C2C1` (centres unmarked) [B-9, Rupestonic (p-methylphenyl)-ester], IC50 13.4 µM. Against it:
- C=C(C(=O)Oc1ccc(Cl)cc1)C1CCC(C)C2CC(=O)C(C)=C2C1 (centres unmarked) [B-2, Rupestonic (p-chlorophenyl)-ester] — within 1.5-fold, 19.1 µM

System: A-type flu virus (jifang/90-15)
Experiment: organism not typed
Conditions: MDCK, 36 h, read-out: Activity for inhibiting A-type flu viruses IC50

Point of comparison: `NC(=O)c1ncn([C@@H]2O[C@H](CO)[C@@H](O)[C@H]2O)n1` [Ribavirin], IC50 1.6 µM. Against it:
- CCOC(=O)C1=C[C@@H](OC(CC)CC)[C@H](NC(C)=O)[C@@H](N)C1 [Oseltamivir] — 3.2-fold higher, 5.1 µM
